The text below walks through data of patent US9957274B2, “Indane inhibitors of EED and methods of their use” (AbbVie Inc., priority 2016, dated 2018).

In the assay the target is EED (Homo sapiens, UniProt O75530). As to the kind of experiment: EED TR-FRET Binding Assay (modified LanthaScreen competition assay). On the procedure:
Compounds were tested in a modified LanthaScreen competition assay.
The following buffer was used to set up the binding reactions: 20 mM Tris-HCl pH 7.5, 200 mM NaCl, 0.01% Tween-20, 10 uM DTT (dithiothreitol), and 0.05% BSA (bovine serum albumin), with the DTT and BSA added fresh prior to initiating the binding assay. […] The reactions were then incubated for 1 hour at 25° C. in a humidified chamber prior to detection on the Perkin Elmer Envision plate reader using a Lanthascreen TR-FRET protocol.
(TR-FRET usually uses a lanthanide donor and a delayed reading to cut background.)

Sequence of EED (O75530 whole entry): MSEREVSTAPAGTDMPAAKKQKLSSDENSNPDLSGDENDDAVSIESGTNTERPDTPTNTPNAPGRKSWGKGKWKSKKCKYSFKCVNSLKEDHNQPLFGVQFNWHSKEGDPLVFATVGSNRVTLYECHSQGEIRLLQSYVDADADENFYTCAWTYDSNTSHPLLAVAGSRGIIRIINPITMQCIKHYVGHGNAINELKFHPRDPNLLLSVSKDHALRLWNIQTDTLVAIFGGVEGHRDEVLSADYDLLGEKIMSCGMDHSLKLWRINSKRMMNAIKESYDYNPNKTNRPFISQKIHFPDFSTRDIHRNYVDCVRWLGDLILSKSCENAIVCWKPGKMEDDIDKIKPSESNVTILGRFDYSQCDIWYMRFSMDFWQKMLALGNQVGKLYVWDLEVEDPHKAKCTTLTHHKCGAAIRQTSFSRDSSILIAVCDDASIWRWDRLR

Turning to `COC(=O)c1ccc([C@H]2CN(C3CCc4cccc(Cl)c43)C[C@@H]2N(C)C)cc1` (mixture of isomers) [Example 21, rac-methyl 4-[(3S,4R)-1-(7-chloro-2,3-dihydro-1H-inden-1-yl)-4-(dimethylamino)pyrrolidin-3-yl]benzoate], the IC50 (usually the concentration that gives 50% inhibition) turned out to be 70.7 nM.

On to `CN(C)[C@H]1CN(C2CCc3cccc(Cl)c32)C[C@@H]1c1ccc(C(=O)O)cc1` (mixture of isomers) [Example 28, rac-4-[(3S,4R)-1-(7-chloro-2,3-dihydro-1H-inden-1-yl)-4-(dimethylamino)pyrrolidin-3-yl]benzoic acid], for which the IC50 is 489 nM. Compared with the last molecule, the IC50 is about 6.9-fold higher.

As for `CN(C)[C@H]1CN(C2CCc3cccc(F)c32)C[C@@H]1C1CCOCC1` (mixture of isomers) [Example 144, rac-(3R,4S)-1-(7-fluoro-2,3-dihydro-1H-inden-1-yl)-N,N-dimethyl-4-(oxan-4-yl)pyrrolidin-3-amine], the IC50 was determined as 12.1 nM.

As for `Cc1cc([C@H]2CN(C3CCc4cccc(F)c43)C[C@@H]2N(C)C)ccc1Br` (mixture of isomers) [Example 27, rac-(3R,4S)-4-(4-bromo-3-methylphenyl)-1-(7-fluoro-2,3-dihydro-1H-inden-1-yl)-N,N-dimethylpyrrolidin-3-amine], the 50% inhibitory concentration (IC50) is 1.84 nM.

With `COC(=O)c1cccc2c([C@@H]3CN(C4CCc5cccc(F)c54)C[C@H]3N(C)C)cn(C)c12` (stereo partly drawn) [Example 86, methyl 3-[(3R,4S)-4-(dimethylamino)-1-(7-fluoro-2,3-dihydro-1H-inden-1-yl)pyrrolidin-3-yl]-1-methyl-1H-indole-7-carboxylate], the IC50 is 14.8 nM.

The molecule `CN(C)[C@H]1CN([C@H]2CCc3cccc(F)c32)C[C@@H]1c1cn(C)c2cccnc12` (mixture of isomers) [Example 138, rac-(3R,4S)-1-[(1S)-7-fluoro-2,3-dihydro-1H-inden-1-yl]-N,N-dimethyl-4-(1-methyl-1H-pyrrolo[3,2-b]pyridin-3-yl)pyrrolidin-3-amine] came in with an IC50 of 119 nM.

`CN(C)[C@@H]1CN(C2CCc3cccc(F)c32)C[C@H]1c1cnc2n1CCCC2` (mixture of isomers) [Example 140, rac-(3S,4R)-1-(7-fluoro-2,3-dihydro-1H-inden-1-yl)-N,N-dimethyl-4-(5,6,7,8-tetrahydroimidazo[1,2-a]pyridin-3-yl)pyrrolidin-3-amine] gave an IC50 of 61.3 nM.

In turn, `CN(C)[C@H]1CN(C2CCc3cccc(F)c32)C[C@@H]1c1cn(C)c2ccncc12` (mixture of isomers) [Example 141, rac-(3R,4S)-1-(7-fluoro-2,3-dihydro-1H-inden-1-yl)-N,N-dimethyl-4-(1-methyl-1H-pyrrolo[3,2-c]pyridin-3-yl)pyrrolidin-3-amine] showed an IC50 of 46.8 nM.

In turn, `COC(=O)c1ccc([C@H]2CN(C3CCc4cccc(F)c43)C[C@@H]2N(C)C)cc1C` (mixture of isomers) [Example 39, rac-methyl 4-[(3S,4R)-4-(dimethylamino)-1-(7-fluoro-2,3-dihydro-1H-inden-1-yl)pyrrolidin-3-yl]-2-methylbenzoate] had an IC50 of 1.07 nM.

The molecule `CN(C)[C@H]1CN(C2CCc3cc(F)ccc32)C[C@@H]1c1cn(C)c2ccccc12` (mixture of isomers) [Example 91, rac-(3R,4S)-1-(5-fluoro-2,3-dihydro-1H-inden-1-yl)-N,N-dimethyl-4-(1-methyl-1H-indol-3-yl)pyrrolidin-3-amine] came in with an IC50 of 30.7 nM.

Consider `CN(C)[C@H]1CN(C2CCc3c(F)cccc32)C[C@@H]1c1cn(C)c2ccccc12` (mixture of isomers) [Example 90, rac-(3R,4S)-1-(4-fluoro-2,3-dihydro-1H-inden-1-yl)-N,N-dimethyl-4-(1-methyl-1H-indol-3-yl)pyrrolidin-3-amine], for which the IC50 came out at 20.8 nM.

In turn, `CC(=O)N1CCN(c2ccc3c([C@H]4CN(C5CCc6cccc(F)c65)C[C@@H]4N(C)C)cn(C)c3c2)CC1` (mixture of isomers) [Example 121, rac-1-(4-{3-[(3S,4R)-4-(dimethylamino)-1-(7-fluoro-2,3-dihydro-1H-inden-1-yl)pyrrolidin-3-yl]-1-methyl-1H-indol-6-yl}piperazin-1-yl)ethan-1-one] came in with an IC50 of 3.79 nM.
